# In patent publication US8569578B1, “Generating transgenic potatoes with novel resistance to potato cyst nematodes by silencing nematode parasitism genes of CLE -1 and CLE-4s” (The United States of America, as represented by the …, priority 2009, dated 2013):
# “Also recorded” adds a separate entry of the source.
# Assays:
# Assay type in all cases: in vivo
# [1] = tested on: Arabidopsis (Columbia-0) roots; test: in vitro root assay with synthetic CLE peptides on Arabidopsis roots; conditions: 10 μM peptide in assay medium, compared with no peptide or Ag-16p
# Description: (§1) Mounting evidence supports that the conserved CLE motif represents the major functional domain of plant CLE proteins. Gr-CLE genes encode four different 12-aa CLE motifs (FIG. 1A). To examine the functional sufficiency of these nematode CLE motifs, we conducted in vitro root assays (Fiers et al. 2005) using synthetic dodecapeptides (GrCLE1-1-12p, GrCLE4-1-12p, GrCLE4-2-12p, and GrCLE4-3-12p) corresponding to the four CLE motifs of Gr-CLE proteins. A 16-aa peptide (Ag-16p) (Fiers et al. 2005) corresponding to the C-terminus of AGAMOUS that has no similarity with plant CLE motifs and a 12-aa CLV3 peptide (CLV3-12p) were used as negative and positive controls, respectively. In addition, several peptides, including a mutated GrCLE1-1 dodecapeptide (GrCLE1-1m-12p, with a Gly-to-Ala conversion as in clv3-1 and clv3-5 mutants), a 14-aa GrCLE1-1 peptide (GrCLE1-1-14p, with one additional N-terminal and one additional C-terminal residue compared to Gr-CLE1-1-12p), and three 13-aa peptides of GrCLE4-1-13p, GrCLE4-2-13p, and GrCLE4-3-13p (all contained an extra N-terminal lysine residue compared to the corresponding dodecapeptides), were synthesized and used in the in vitro root assays.
# (§2) Peptides with a purity of >70% were synthesized (Sigma-Aldrich Corp., St. Louis, Mo., U.S.A) and dissolved in filter-sterilized 50 mM sodium phosphate buffer. Three Gr-CLE-1 related peptides were synthesized: GrCLE1-1-12p (12 aa, RVIPGGPDPLHN; SEQ ID NO: 12), GrCLE1-1m-12p (12 aa, RVIPGAPDPLHN; SEQ ID NO: 13, with a G-to-A conversion at position 6), and GrCLE1-1-14p (14 aa, KRVIPGGPDPLHNR; SEQ ID NO: 14). Six Gr-CLE-4 related peptides were synthesized: GrCLE4-1-12p (12 aa, RVAGAGPDPIHH; SEQ ID NO: 15), GrCLE4-1-13p (13 aa, KRVAGAGPDPIHH; SEQ ID NO: 16), GrCLE4-2-12p (12 aa, RAVPAGPDPKHH; SEQ ID NO: 17), GrCLE4-2-13p (13 aa, KRAVPAGPDPKHH; SEQ ID NO: 18), GrCLE4-3-12p (12 aa, RGAPAGPDP IHH; SEQ ID NO: 19), and GrCLE4-3-13p (13 aa, KRGAPAGPDPIHH; SEQ ID NO: 20). Positive and negative control peptides included CLV3-12p (12 aa, RTVPSGPDPLHH; SEQ ID NO: 21) and Ag-16p (16 aa, APNNHHYSSAGRQDQT; SEQ ID NO: 22) (Fiers et al., 2005).
# (§3) For peptide treatments, seeds of wild-type Arabidopsis (Columbia-0) and potato, nonhost and host of G. rostochiensis, respectively, were surface-sterilized and plated on square plates (8-12 seeds per plate) containing the assay medium (Fiers et al. 2005, supra) with 10 μM of each peptide. Assay plates were placed vertically in a growth chamber and cultured at 23° C. for 16 h of light and 8 h of dark. The root length was measured from the base of the hypocotyl to the tip of the primary root at several time points after plating. Two independent experiments were conducted.
# [2] = tested on: Arabidopsis (Columbia-0) root apical meristem; test: microscopic examination of root apical meristem of peptide treated Arabidopsis roots; conditions: Arabidopsis primary roots 8 days after peptide treatment
# Description: To examine root meristems, primary root tips were excised from peptide treated Arabidopsis seedlings or from transgenic potato hairy roots and immediately mounted in water onto a glass slide. Roots were examined under an Olympus BX-50 microscope equipped with Nomarski optics and images were captured using a QImaging Retiga EXi digital CCD camera (QImaging, Surrey, BC, Canada). The root apical meristem (RAM) regions of individual primary roots that covered the distance from the position around the quiescent center to the position where elongated root cells immediately follow cytoplasm-dense meristematic cells were measured microscopically. The collected data were analyzed using the MetaMorph imaging analysis software (Universal Imaging Corporation, Downingtown, Pa., U.S.A.)
# [3] = tested on: potato roots; test: in vitro root assay with synthetic CLE peptides on potato roots; conditions: 10 μM peptide in assay medium, compared with no peptide or Ag-16p
# Description: as §1, §2, §3
Sequence,suppression of root growth (length of main root) [1],suppression of root growth (length of main root) ([1]; listed as GrCLE1-1),root meristem consumption (size of root apical meristem) [2],suppression of root growth (length of main root) [3]
"RVIPGGPDPLHN (listed as Globodera rostochiensis) [GrCLE1-1-12p, synthetic 12 aa dodecapeptide of the GrCLE1-1 CLE motif]",suppressed root growth; also recorded: comparable level of suppression as CLV3-12p; also recorded: significantly shorter,higher degree of root suppression,more severe; also recorded: significantly less,suppressed root growth; also recorded: comparable level of suppression as CLV3-12p; also recorded: significantly shorter
"RTVPSGPDPLHH (listed as Globodera rostochiensis) [CLV3-12p, 12-aa CLV3 peptide, positive control, reference compound]",severely suppressed root growth,–,showed a phenotype of root meristem consumption,severely suppressed root growth
